Assay results as given in patent US5635458A, “Water-based drilling fluids for reduction of water adsorption and hydration of argillaceous rocks” (M-I Drilling Fluids, L.L.C., priority 1995, dated 1997).

assay: not given; details: based on laboratory test data; direct ingestion; cited from earlier work

| Molecule | toxicity ranking / hazard in words |
| --- | --- |
| OCCO [Ethylene Glycol] | most toxic |
| Butylene Glycol | least toxic |
| CC(O)CO (stereo not drawn) [Propylene Glycol] | least toxic |

same assay, conditions: single dose, oral; from Patty's Industrial Hygiene and Toxicology, 1978; cited from earlier work

| Molecule | single-dose oral LD50 |
| --- | --- |
| OCCO [Ethylene Glycol] | 6-12 gm/KG |
| Butylene Glycol | 23-30 gm/KG |
| CC(O)CO (stereo not drawn) [Propylene Glycol] | 21-34 gm/KG |
| OCCOCCOCCO [Triethylene Glycol] | 16-22 gm/KG |
| OCCOCCO [Diethylene Glycol] | 16-21 gm/KG |
| Dipropylene Glycol | ~ 15 gm/KG |

assay: not given; details: 100% glycol fluid; U.S. Pat. No. 4,830,765; cited from earlier work

| Molecule | swelling of bentonite |
| --- | --- |
| CC(O)CO (stereo not drawn) [Propylene Glycol] | completely prevented |
| CC(O)COC(C)COC(C)CO (stereo not drawn) [Tripropylene Glycol] | completely prevented |

same assay, conditions: in a fluid phase; U.S. Pat. No. 4,830,765; cited from earlier work

| Molecule | concentration needed to provide appreciable swelling inhibition on bentonite [% by weight] |
| --- | --- |
| CC(O)CO (stereo not drawn) [Propylene Glycol] | ≥ 50 |
| OC[C@@H](O)[C@@H](O)[C@H](O)[C@@H](O)CO [sorbitol] | ≥ 50 |
| OCC(O)CO [glycerin] | ≥ 50 |

assay: Swelling test, Louisiana gumbo shale; details: gumbo shale pellets
Description: The swelling inhibition effects of drilling fluids of this invention on water-sensitive shales have been evaluated by performing swelling tests using a Computer-Aided Swellmeter developed by M-I Drilling Fluids L.L.C. This device is described in, Lee, John, "Swellmeter Analysis," M-I® TECH-NEWS, November 1989. Pellets with 1 inch diameter, prepared by compressing pulverized water-sensitive shales under controlled loads, are placed in specially designed holders and allowed to be in direct contact with test fluids. The pellets are allowed to adsorb test fluids and swell for a period of time ranging from about 60 to 120 hours in the test fluids. Volume expansions of the pellets are recorded by using liner variable differential transformers. The volume expansions of the pellets and slopes of the swelling curves at the end of the test are used to evaluate the water adsorption and swelling inhibition of the test fluids.
The swelling tests were performed according to the test procedures given above. The argillaceous rock used for the tests was a "gumbo shale" obtained from offshore Louisiana. The gumbo shale was pulverized and pressed into 1 inch diameter pellets under 10,000 pounds of force for 5 minutes. The volume expansions of the pellets and the swelling rates calculated from swelling data obtained between 55 and 60 hours of the test are shown in Table 2. […]

| Molecule | swelling inhibition in words |
| --- | --- |
| C[N+](C)(C)CCO.[Cl-] [Choline Chloride, choline chloride] | more effective than the inorganic cationic material |
